Molecular target: His6 USP28 (Homo sapiens (Human), UniProt Q96RU2)
Test: Ubiquitin-Rhodamine 110 assay to determine USP28 IC50
Format: biochemical
Conditions: USP28 150 pM, Ub-Rho110 41 nM, 2 h pre-incubation with enzyme, fluorescence read
Experimental: Example 21. Ubiquitin-Rhodamine 110 Assay to Determine USP28 IC50
Each assay was performed in a final volume of 8 μl in assay buffer containing 10 mM HEPES pH 7.3 ((1 M, pH 7.3 solution, (VWR J848), 100 mM NaCl (5 M, Corning 46-032-CV), 0.01% Triton X-100 (Sigma #T8787), 3.5 mM DTT (1 M, Sigma #43819) and 0.00375% BSA (10%, Calbiochem, #126609)). The assay buffer pH was adjusted to 7.5 using 1 N NaOH (JT Baker, #5000-03). Stock compounds were stored at −80° C. as a 25 mM in DMSO solution along with their respective 20 point 2 fold serial dilutions. For the dose responses, stock compound plates were allowed to come to room temperature the day of the assay. […] of the serial dilution series were pre stamped into assay plates (Black, high base, medium binding, Greiner #782076) for a final top screening concentration of 125 μM (DMSO final concentration=0.5%). Enzyme (His6 USP28, BostonBiochem, #E-570) concentration and incubation times were optimized for the maximal signal to background while maintaining the initial velocity conditions at a fixed substrate concentration. The final concentration of the enzyme in the assay was 150 pM. Final substrate (Ub-Rhol10, Ubiquitin-Rhodamine 110, UBPBio, #M3020) concentration was 41 nM. 2 μl of 4× enzyme was added to assay plates (pre stamped with compound) and incubated for 2 h at room temperature. […] was subsequently added to the assay plates and incubated for 2 h at room temperature. Fluorescence was then read on the Envision (Excitation 485 nm and Emission at 535 nm, Perkin Elmer).

His6 USP28, sequence (Q96RU2 whole entry): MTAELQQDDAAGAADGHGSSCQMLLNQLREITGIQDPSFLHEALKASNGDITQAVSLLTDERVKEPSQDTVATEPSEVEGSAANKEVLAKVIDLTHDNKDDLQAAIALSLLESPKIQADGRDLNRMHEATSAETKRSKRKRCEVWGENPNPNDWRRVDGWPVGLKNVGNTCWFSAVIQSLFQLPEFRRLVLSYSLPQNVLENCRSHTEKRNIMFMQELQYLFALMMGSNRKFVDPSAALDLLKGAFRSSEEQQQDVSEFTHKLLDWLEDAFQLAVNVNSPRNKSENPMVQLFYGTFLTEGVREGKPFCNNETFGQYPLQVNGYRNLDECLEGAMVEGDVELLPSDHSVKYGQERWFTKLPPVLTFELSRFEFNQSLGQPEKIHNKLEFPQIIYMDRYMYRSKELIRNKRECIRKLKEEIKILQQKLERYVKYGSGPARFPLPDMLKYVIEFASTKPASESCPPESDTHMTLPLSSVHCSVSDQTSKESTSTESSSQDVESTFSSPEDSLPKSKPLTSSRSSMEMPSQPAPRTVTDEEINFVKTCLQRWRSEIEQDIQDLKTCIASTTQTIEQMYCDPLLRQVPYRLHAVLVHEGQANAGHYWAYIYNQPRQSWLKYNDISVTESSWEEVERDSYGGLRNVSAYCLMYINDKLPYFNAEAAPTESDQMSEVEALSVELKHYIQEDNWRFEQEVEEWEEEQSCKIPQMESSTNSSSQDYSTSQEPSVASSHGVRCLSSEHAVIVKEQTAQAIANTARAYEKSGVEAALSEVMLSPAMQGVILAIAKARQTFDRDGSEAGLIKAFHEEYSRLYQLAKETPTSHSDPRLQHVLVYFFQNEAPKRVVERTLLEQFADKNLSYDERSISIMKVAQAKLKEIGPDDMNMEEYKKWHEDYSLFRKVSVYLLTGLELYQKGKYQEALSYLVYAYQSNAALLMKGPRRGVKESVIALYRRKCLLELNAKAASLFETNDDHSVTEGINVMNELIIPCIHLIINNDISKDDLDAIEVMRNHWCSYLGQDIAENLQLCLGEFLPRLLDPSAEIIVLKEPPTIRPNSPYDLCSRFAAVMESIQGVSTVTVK

Compound | IC50 [nM]
Cc1cccc(Cc2noc(-c3ccc(OCC(=O)N[C@@H]4C[C@@H](C)N(C#N)C4)cc3)n2)c1 [Compound 9, N-[(3R,5R)-1-Cyano-5-methylpyrrolidin-3-yl]-2-(4-{3-[(3-methylphenyl)methyl]-1,2,4-oxadiazol-5-yl}phenoxy)acetamide] | 50 to 500
Cc1ccc(C(=O)NCc2ccc(-c3nc(Cc4cccc(Cl)c4)no3)cc2)cn1 [Compound 19, N-[(4-{3-[(3-Chlorophenyl)methyl]-1,2,4-oxadiazol-5-yl}phenyl)methyl]-6-methylpyridine-3-carboxamide] | 500 to 1000
C[C@@H]1C[C@@H](NC(=O)NCc2ccc(-c3nc(Cc4cccc(Cl)c4)no3)cc2)CN1C#N [Compound 10, 1-(4-(3-(3-Chlorobenzyl)-1,2,4-oxadiazol-5-yl)benzyl)-3-((3R,5R)-1-cyano-5-methylpyrrolidin-3-yl)urea] | 50 to 500
Cc1oc(Cc2cccc(Cl)c2)nc1-c1ccc(COc2ccc(C(=O)N(C)CCN3CCCNC3=O)cc2)cc1 [Compound 44, 4-[(4-{2-[(3-Chlorophenyl)methyl]-5-methyl-1,3-oxazol-4-yl}phenyl)methoxy]-N-methyl-N-[2-(2-oxo-1,3-diazinan-1-yl)ethyl]benzamide] | < 50
Cc1oc(Cc2cccc(Cl)c2)nc1-c1ccc(OCc2ccc(C(=O)N(C)C)cn2)cc1 [Compound 24, 6-[(4-{2-[(3-Chlorophenyl)methyl]-5-methyl-1,3-oxazol-4-yl}phenoxy)methyl]-N,N-dimethylpyridine-3-carboxamide] | < 50
CN[C@H]1CCCN(C(=O)c2ccc(COc3ccc(-c4nc(Cc5cccc(Cl)c5)oc4C)cc3)nc2)C1 [Compound 40, (3S)-1-{6-[(4-{2-[(3-Chlorophenyl)methyl]-5-methyl-1,3-oxazol-4-yl}phenoxy)methyl]pyridine-3-carbonyl}-N-methylpiperidin-3-amine] | < 50
Cc1oc(Cc2cccc(Cl)c2)nc1-c1ccc(OCc2ccc(C(=O)N3CCC(N)CC3)cn2)cc1 [Compound 38, 1-{6-[(4-{2-[(3-Chlorophenyl)methyl]-5-methyl-1,3-oxazol-4-yl}phenoxy)methyl]pyridine-3-carbonyl}piperidin-4-amine] | < 50
COc1cccc(Cc2noc(-c3ccc(OCC(=O)N[C@@H]4C[C@@H](C)N(C#N)C4)cc3)n2)c1 [Compound 7, N-[(3R,5R)-1-Cyano-5-methylpyrrolidin-3-yl]-2-(4-{3-[(3-methoxyphenyl)methyl]-1,2,4-oxadiazol-5-yl}phenoxy)acetamide] | > 1000
Cc1oc(Cc2cccc(Cl)c2)nc1-c1ccc(OCc2ccc(C(=O)N3CC4CCC(C3)N4)cn2)cc1 [Compound 29, (3,8-Diazabicyclo[3.2.1]octan-3-yl)(6-((4-(2-(3-chlorobenzyl)-5-methyloxazol-4-yl)phenoxy)methyl)pyridin-3-yl)methanone] | < 50
Cc1oc(Cc2cnn(C)c2)nc1-c1ccc(OCc2ccc(C(=O)N(C)C)cn2)cc1 [Compound 30] | 50 to 500
C[C@@H]1C[C@@H](NC(=O)/C=C/c2cccc(-c3nc(Cc4cccc(Cl)c4)no3)c2)CN1C#N [Compound 17, (2E)-3-(3-{3-[(3-Chlorophenyl)methyl]-1,2,4-oxadiazol-5-yl}phenyl)-N-[(3R,5R)-1-cyano-5-methylpyrrolidin-3-yl]prop-2-enamide] | > 1000
C[C@@H]1C[C@@H](NC(=O)COc2ccc(-c3nc(Cc4cccc(C#N)c4)no3)cc2)CN1C#N [Compound 8, N-((3R,5R)-1-Cyano-5-methylpyrrolidin-3-yl)-2-(4-(3-(3-cyanobenzyl)-1,2,4-oxadiazol-5-yl)phenoxy)acetamide] | 500 to 1000
CN[C@H]1CCN(C(=O)c2ccc(COc3ccc(-c4nc(Cc5cccc(Cl)c5)oc4C)cc3)nc2)C1 [Compound 35, (3S)-1-{6-[(4-{2-[(3-Chlorophenyl)methyl]-5-methyl-1,3-oxazol-4-yl}phenoxy)methyl]pyridine-3-carbonyl}-N-methylpyrrolidin-3-amine] | < 50
C[C@@H]1C[C@@H](NC(=O)COc2ccc(-c3nc(Cc4ccccc4)no3)cc2)CN1C#N [Compound 2, 2-[4-(3-Benzyl-1,2,4-oxadiazol-5-yl)phenoxy]-N-[(3R,5R)-1-cyano-5-methylpyrrolidin-3-yl]acetamide] | > 1000
Cc1oc(Cc2cccc(Cl)c2)nc1-c1ccc(OCc2cc(C(=O)N(C)C)n(C)n2)cc1 [Compound 23, 3-((4-(2-(3-Chlorobenzyl)-5-methyloxazol-4-yl)phenoxy)methyl)-N,N,1-trimethyl-1H-pyrazole-5-carboxamide] | 50 to 500
Cc1oc(Cc2cccc(Cl)c2)nc1-c1ccc(/C=C/C(=O)N[C@@H]2C[C@@H](C)N(C#N)C2)cc1 [Compound 14, (E)-3-(4-(2-(3-Chlorobenzyl)-5-methyloxazol-4-yl)phenyl)-N-((3R,5R)-1-cyano-5-methylpyrrolidin-3-yl)acrylamide] | 50 to 500
C[C@@H]1C[C@@H](NC(=O)/C=C/c2ccc(-c3nc(Cc4cccc(Cl)c4)no3)cc2)CN1C#N [Compound 5, (E)-3-(4-(3-(3-Chlorobenzyl)-1,2,4-oxadiazol-5-yl)phenyl)-N-((3R,5R)-1-cyano-5-methylpyrrolidin-3-yl)acrylamide] | 50 to 500
Cc1oc(Cc2cccc(Cl)c2)nc1-c1ccc(OCc2ccc(C(=O)N(C)C)cc2)cc1 [Compound 22, 4-((4-(2-(3-Chlorobenzyl)-5-methyloxazol-4-yl)phenoxy)methyl)-N,N-dimethylbenzamide] | < 50
Cc1oc(Cc2cccc(Cl)c2)nc1-c1ccc(OCc2ncc(C(=O)N(C)C)cn2)cc1 [Compound 26, 2-[(4-{2-[(3-Chlorophenyl)methyl]-5-methyl-1,3-oxazol-4-yl}phenoxy)methyl]-N,N-dimethylpyrimidine-5-carboxamide] | < 50
Cc1oc(Cc2cccc(Cl)c2)nc1-c1ccc(COc2ccc(C(=O)N3CCC(Cc4ncc[nH]4)CC3)cc2)cc1 [Compound 43, (4-((1H-Imidazol-2-yl)methyl)piperidin-1-yl)(4-((4-(2-(3-chlorobenzyl)-5-methyloxazol-4-yl)benzyl)oxy)phenyl)methanone] | < 50
Cc1oc(Cc2cccc(Cl)c2)nc1-c1ccc(/C=C/C(=O)N[C@H]2CN[C@H](C)C2)cc1 [Compound 15, (E)-3-(4-(2-(3-Chlorobenzyl)-5-methyloxazol-4-yl)phenyl)-N-((3R,5R)-5-methylpyrrolidin-3-yl)acrylamide] | 50 to 500
C[C@@H]1C[C@@H](NC(=O)Cc2ccc(-c3nc(Cc4cccc(Cl)c4)no3)cc2)CN1C#N [Compound 16, 2-(4-{3-[(3-Chlorophenyl)methyl]-1,2,4-oxadiazol-5-yl}phenyl)-N-[(3R,5R)-1-cyano-5-methylpyrrolidin-3-yl]acetamide] | > 1000
C[C@@H]1C[C@@H](NC(=O)COc2ccc(-c3nc(Cc4cccc(C(F)(F)F)c4)no3)cc2)CN1C#N [Compound 6, N-[(3R,5R)-1-Cyano-5-methylpyrrolidin-3-y1]-2-[4-(3-{[3-(trifluoromethyl)phenyl]methyl}-1,2,4-oxadiazol-5-y1)phenoxy]acetamide] | 50 to 500
N#CN1C[C@H](NC(=O)COc2ccc(-c3nc(Cc4ccccc4)no3)cc2)C[C@H]1CF [Compound 1, 2-[4-(3-Benzyl-1,2,4-oxadiazol-5-yl)phenoxy]-N-[(3R,5S)-1-cyano-5-(fluoromethyl)pyrrolidin-3-yl]acetamide] | > 1000
CN[C@@H]1CCCN(C(=O)c2ccc(COc3ccc(-c4nc(Cc5cccc(Cl)c5)oc4C)cc3)nc2)C1 [Compound 41, (3R)-1-{6-[(4-{2-[(3-Chlorophenyl)methyl]-5-methyl-1,3-oxazol-4-yl}phenoxy)methyl]pyridine-3-carbonyl}-N-methylpiperidin-3-amine] | < 50
CN(C)C(=O)c1ccc(OCc2ccc(-c3nc(Cc4cccc(Cl)c4)no3)cc2)cc1 [Compound 18, 4-((4-(3-(3-Chlorobenzyl)-1,2,4-oxadiazol-5-yl)benzyl)oxy)-N,N-dimethylbenzamide] | 50 to 500
Cc1oc(Cc2cccc(Cl)c2)nc1-c1ccc(COc2ccc(C(=O)N(C)C)cc2)cc1 [Compound 21, 4-((4-(2-(3-Chlorobenzyl)-5-methyloxazol-4-yl)benzyl)oxy)-N,N-dimethylbenzamide] | < 50
C[C@@H]1C[C@@H](NC(=O)COc2ccc(-c3nc(Cc4cccc(Cl)c4)no3)cc2)CN1C#N [Compound 3, 2-(4-(3-(3-Chlorobenzyl)-1,2,4-oxadiazol-5-yl)phenoxy)-N-((3R,5R)-1-cyano-5-methylpyrrolidin-3-yl)acetamide] | 50 to 500
Cc1oc(Cc2cccc(Cl)c2)nc1-c1ccc(OCc2ccc(C(=O)N(C)C)cc2COCCO)cc1 [Compound 33, 4-((4-(2-(3-Chlorobenzyl)-5-methyloxazol-4-yl)phenoxy)methyl)-3-((2-hydroxyethoxy)methyl)-N,N-dimethylbenzamide] | < 50
Cc1oc(Cc2cccc(Cl)c2)nc1-c1ccc(OCc2ccc(C(=O)N(C)C)nn2)cc1 [Compound 25, 6-[(4-{2-[(3-Chlorophenyl)methyl]-5-methyl-1,3-oxazol-4-yl}phenoxy)methyl]-N,N-dimethylpyridazine-3-carboxamide] | < 50

Reference: patent US20240425513A1, “OXAZOLE, OXADIAZOLE, AND INDOLE DERIVATIVES FOR THE INHIBITION OF USP28” (Carmot Therapeutics, Inc., priority 2021, published 2024)
